We go through 15 compounds from ChEMBL document CHEMBL3399973, “Synthesis and biological evaluation of isoxazoline derivatives as potent M₁ muscarinic acetylcholine receptor agonists” (Bioorg Med Chem Lett, 2015).

Assay [1] has as its target T1, Muscarinic acetylcholine receptor M1 (Homo sapiens) (UniProt P11229).
T1 sequence (whole entry): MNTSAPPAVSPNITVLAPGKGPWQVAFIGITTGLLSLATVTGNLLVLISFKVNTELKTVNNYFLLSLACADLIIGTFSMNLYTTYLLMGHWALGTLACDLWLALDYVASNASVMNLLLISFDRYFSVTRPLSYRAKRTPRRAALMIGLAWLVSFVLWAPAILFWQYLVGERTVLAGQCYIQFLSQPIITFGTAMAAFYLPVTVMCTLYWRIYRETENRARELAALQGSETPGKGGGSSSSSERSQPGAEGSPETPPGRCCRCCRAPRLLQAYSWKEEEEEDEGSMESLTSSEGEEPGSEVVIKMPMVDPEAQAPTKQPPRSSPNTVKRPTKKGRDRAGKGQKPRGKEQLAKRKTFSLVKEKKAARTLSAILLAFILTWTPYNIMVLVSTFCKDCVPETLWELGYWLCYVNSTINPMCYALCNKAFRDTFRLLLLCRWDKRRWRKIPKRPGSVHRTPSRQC
The following applies: HEK293, at 10 µM.

The target of assay [2] is T1, Muscarinic acetylcholine receptor M1 (Homo sapiens). Particulars: HEK293, at 10 µM. This is another data set of the same source.
The target of assay [3] is T2, Muscarinic acetylcholine receptor M1 (Homo sapiens, UniProt P11229).
T2 sequence (P11229 whole entry): T1 sequence (whole entry)

In assay [4] the target is T1, Muscarinic acetylcholine receptor M1 (Homo sapiens). The assay can be described thus: Agonist activity at human m1 muscarinic acetylcholine receptor expressed in HEK293 cells assessed as activation of ERK1/2 phosphorylation after 2 mins by Western blotting analysis. In kind it is cell-based.
For assay [5] the target is unchanged. The assay can be described thus: Agonist activity at human m1 muscarinic acetylcholine receptor expressed in HEK293 cells assessed as relative ratio of phosphorylated ERK1/2 to ERK1/2 at 1 uM after 2 mins by Western blotting analysis relative to 100 uM acetylcholine response. The assay is classed as cell-based.
For assay [6] the target is unchanged. The assay can be described thus: Agonist activity at human m1 muscarinic acetylcholine receptor expressed in HEK293 cells assessed as relative ratio of phosphorylated ERK1/2 to ERK1/2 at 10 uM after 2 mins by Western blotting analysis relative to 100 uM acetylcholine response. The assay is classed as cell-based.
Assay [7] shares this target. The assay can be described thus: Agonist activity at human m1 muscarinic acetylcholine receptor expressed in HEK293 cells assessed as relative ratio of phosphorylated ERK1/2 to ERK1/2 at 100 uM after 2 mins by Western blotting analysis relative to 100 uM acetylcholine response. In kind it is cell-based.
Assay [8] concerns SH-SY5Y. The assay can be described thus: Induction of sAPPalpha release in human SH-SY5Y cells after 1 hr by immunoblotting analysis. The assay is classed as functional, cell-based.
The test system of assay [9] is SH-SY5Y. The assay can be described thus: Induction of sAPPalpha release in human SH-SY5Y cells assessed as fold changed at 0.01 uM after 1 hr by immunoblotting analysis relative to 100 uM acetylcholine response. The assay is classed as functional.
Assay [10] has as its system SH-SY5Y. The assay can be described thus: Induction of sAPPalpha release in human SH-SY5Y cells assessed as fold changed at 0.1 uM after 1 hr by immunoblotting analysis relative to 100 uM acetylcholine response. In kind it is functional.
For assay [11], the system named is SH-SY5Y. The assay can be described thus: Induction of sAPPalpha release in human SH-SY5Y cells assessed as fold changed at 1 uM after 1 hr by immunoblotting analysis relative to 100 uM acetylcholine response. In kind it is functional.

For the compound `O=C1CCCN1C1CC(CCN2CCCC2)=NO1` (stereo not drawn), the Efficacy in [1] came out at 2.2%. Besides, the inhibition in [2] came out at 20.7%.

Regarding `CN1CCC=C(C2=NOC(Sc3ccccc3)C2)C1` (stereo not drawn), the Efficacy in [1] was 2.3%. Besides, in [2], the inhibition stood at 49.4%.

With `CSCC1CC(C2=CCCN(C)C2)=NO1` (stereo not drawn), the EC50 in assay [3] came to 5680 nM. For the same compound, the Efficacy in assay [1] turned out to be 61.3%.

Regarding `O=C1CCCN1C1CC(CN2CCCCC2)=NO1` (stereo not drawn), the Efficacy in [1] stood at 2.2%. The inhibition in [2] stood at 20.7%.

Consider `CO/N=C/C1=CCCN(C)C1` [MILAMELINE], for which a half-maximal response in assay [3] (EC50) required 21 nM. For the same compound, the Efficacy in assay [1] was 83%.

Take `O=C1CCCN1C1CC(CN2CCCC2)=NO1` (stereo not drawn): in [1], the Efficacy is 2.2%. Further, in assay [2], the inhibition was determined as 20.7%.

The compound `O=C1CCCN1CC#CCN1CCCC1` [OXOTREMORINE] came in with an EC50 in assay [3] of 1.6 nM. In addition, in assay [1], the Efficacy stood at 108%.

Turning to `CN1CCC=C(C2=NOC(CO)C2)C1` (stereo not drawn), the Efficacy in assay [1] amounted to 1.7%. The inhibition in assay [2] is 12.3%.

In assay [1], `CN1CCCC(C2=NOC(N3CCCC3=O)C2)C1` (stereo not drawn) displayed an Efficacy of 2.2%. Also, the inhibition in [2] was 20.7%.

`CCOC1CC(C2=CCCN(C)C2)=NO1` (stereo not drawn) had an Efficacy in assay [1] of 2.4%. The same compound registered an inhibition in assay [2] of 34%.

The compound `CN1CCC=C(c2ccon2)C1` returned a 50% effective concentration (EC50) in assay [3] of 780 nM. The compound also gave an Efficacy in [1] of 95.8%.

For the compound `CN1CCC=C(C2=NOC(N3CCCC3=O)C2)C1` (stereo not drawn), the Activity entry in assay [4] and in assay [8] was “Dose-dependent effect” each time. Further, the figures for the Ratio in assay [5], in assay [6] and in assay [7] were 1.3, 1.7 and 1.8, respectively. In addition, the “fold change (FC)” value in [9] is on record as 1.5; in assay [10], 2.5; in assay [11] it was 3.4. Also, in assay [3], the EC50 was 31 nM. Moreover, the Efficacy in assay [1] turned out to be 99.5%.

`CN1CCC=C(C2=NOC(O)C2)C1` (stereo not drawn) showed an EC50 in assay [3] of 17300 nM. In assay [1], this compound displayed an Efficacy of 36.9%.

Regarding `CN1CCC=C(C2=NOC(C#N)C2)C1` (stereo not drawn), the EC50 in assay [3] is 7540 nM. In assay [1], this compound displayed an Efficacy of 58.8%.

In assay [1], `O=C1CCCN1C1CC(CCN2CCCCC2)=NO1` (stereo not drawn) showed an Efficacy of 2.2%. The compound further returned an inhibition in [2] of 20.7%.
